Test results as given in patent US20030171575A1, “Process for improving sucralose purity and yield” (priority 2002, published 2003).

What was measured:
[1] = Blinded three-sample taste panel, model soft drink with 10 ppm sucralose (Example 7); type: in vivo, panelists; details: 10 ppm sucralose in model soft drink (0.14% citric acid, 0.04% trisodium phosphate, pH 3.2)
Protocol: Purified sucralose is prepared by the process of solvent—solvent extraction and sequential recrystallizations as shown in Examples 1 and 2 of the present invention. Next, the effect on palatability of a beverage by purified sucralose is tested.
Sucralose solutions are prepared by adding crystalline sucralose to a model soft drink composition that contains 0.14% citric acid and 0.04% trisodium phosphate. The pH of this composition is 3.2. Crystalline sucralose compositions are added to the soft drink composition to yield final levels of 10 ppm sucralose.
A model soft drink composition without sucralose is also prepared.
(§1) Panelists are selected from the general population, and no specific demographic parameters are utilized in recruiting the panelists. The product samples are prepared and served chilled. Portions are dispensed into individual servings for the panelists. Samples are presented to panelists in a blinded manner (samples are identified only by a random digit label). Each panelist receives three samples for tasting, and panelists are given a randomized sequence in which to taste the samples. […]
Statistical significance of the correctness of the scores (i.e., panelist ability to detect the sample that is different from the other two) is determined by use of a statistical table that correlates the number of correct responses with a p value.

[2] = Blinded three-sample taste panel, model soft drink with 100 ppm sucralose (Example 3); type: in vivo, panelists; details: 100 ppm sucralose in model soft drink (0.14% citric acid, 0.04% trisodium phosphate, pH 3.2), against samples without sucralose
Protocol: Purified sucralose is prepared by the process of solvent-solvent extraction and sequential recrystallizations as shown in Examples 1 and 2 of the present invention. Next the taste of the resultant composition is tested in a beverage.
Sucralose solutions are prepared by adding crystalline sucralose to a model soft drink composition that contains 0.14% citric acid and 0.04% trisodium phosphate. The pH of this composition is 3.2. Crystalline sucralose compositions are added to the soft drink composition to yield final levels of 100 parts per million (ppm).
Panelists are selected from the general population, and no specific demographic parameters are utilized in recruiting the panelists. The product samples are prepared and served chilled. Portions are dispensed into individual servings for the panelists. Samples are presented to panelists in a blinded manner (samples are identified only by a random digit label). Each panelist receives three samples for tasting (one sample comprising 100 ppm sucralose and two samples not comprising sucralose), and panelists are given a randomized sequence in which to taste the samples. […]
Statistical significance of the correctness of the scores (i.e. panelist ability to detect the sample that is different from the other two) is determined by use of a statistical table that correlates the number of correct responses with a p value.

[3] = Blinded paired palatability panel, consumer product such as ice cream with 150 ppm sucralose (Example 5); type: in vivo, panelists; details: 150 ppm sucralose in consumer product such as ice cream, served chilled
Protocol: Purified sucralose is prepared by the process of solvent-solvent extraction and sequential recrystallizations as shown in Examples 1 and 2 of the present invention. Next, sucralose is used to enhance the palatability of a consumer product.
The sucralose is added to one group (1G) of two groups (1G and 2G) of a consumer product such as ice cream to yield final levels of 150 ppm sucralose.
as §1, with “two groups of” for “product”, “two” for “three”, “samples. Thus, the order of tasting is completely random. In each set of two samples, one sample is from G1 and the other sample is from G2. Panelists are asked to select the sample that tastes the most palatable, record that result and record how confident they are of the result.” for “samples.”
Statistical significance of the correctness of the scores (i.e., panelist ability to detect the most palatable sample) is determined by use of a statistical table that correlates the number of correct responses with a p value.

[4] = background statement; cited from earlier work

In the case of `OC[C@H]1O[C@H](O[C@]2(CCl)O[C@H](CCl)[C@@H](O)[C@@H]2O)[C@H](O)[C@@H](O)[C@H]1Cl` [Sucralose, 4,1′,6′-trichloro-4,1′,6′-trideoxygalactosucrose], the “palatability against samples not comprising sucralose” value [1] is reported as “more palatable”, the “palatability of the odd sample (comments of panelists choosing the correct sample)” value [2] is reported as “increased palatability” and the “palatability against samples not comprising sucralose” value [3] is reported as “more palatable”. The “sweetness intensity compared with sucrose” value [4] was “several hundred times”.
